Assay results reported in US20250304623A1, “PEPTIDES FOR INTRACELLULAR DELIVERY” (UNIVERSIDADE DE SANTIAGO DE COMPOSTELA, priority 2022, published 2025).
*: point of attachment. NHNH2 = NN*

Legend:
Type in all cases: cell-based
HCT116 cells = assay: RLuc pDNA delivery, robotic library screening, HCT116
Hela cells = assay: RLuc pDNA delivery, robotic library screening, HeLa; conditions: Hela
Experimental: Cells were seeded in a 96 well plate the day before the experiment at a concentration of 60,000 cell/mL (100 μL/w) in DMEM+10% FBS+1% Gln-Abt. For robotic library screening, the delivery of pDNA encoding for the expression of Renilla luciferase gene (RLuc, pRL-CMV (Promega, #E2261)) in six different cell lines was performed. […] The mixture was shaken for 30 min at room temperature before the addition to the cells. The cell medium was aspirated, and cells were washed twice with PBS. Finally, 50 μL of the complex's solution were added to the cells and incubated for 4 h. After the incubation, the medium was replaced by 100 μL of fresh DMEM supplemented with 10% FBS. 72 hours after transfection the DMEM was removed, cells were washed once with HBSS and 90 μL of HBSS were added to each well. Cells were incubated at 37° C. for 30 minutes. Then basal luminescence levels were read in a plate reader. Immediately, 10 μL of coelenterazine h in HBSS were added to each well (5 μM final concentration) and cells were incubated at 37° C. for 10 minutes. Finally, the total luminescence measurement of the plates was performed. Amphiphile transfection efficiency was compared and normalized to Lipofectamine® 2000 efficiency (value of 1 in Tables 1-5 and 7; bold numbers). All experiments were done in triplicate.
(§1) Tables 1-7: RLuc (pDNA) or EGFP (mRNA) expression levels were normalized to Lipofectamine reagents (value=1) and expressed as fold-times signal increase. In the case of siRNA, the siRNA treated cells fluorescence was compared with siMOCK control fluorescence, while Cas9-RNP mediated knockout was measured against the fluorescence of untreated cells. In both siRNA and Cas9-RNP, values are expressed as % fluorescence reduction. Amphiphile concentration was 5 μM in all cases. All experiments were performed in triplicate.
(§2) Tables 8-13 show the mean (triplicates) luminescent intensity (RLU) measured after the transfection of RLuc pDNA by different amphiphiles at different concentrations in a variety of cell lines. Background luminescence values, accounted by untransfected control cells, were subtracted for processing.

Hek293 cells = assay: RLuc pDNA delivery, robotic library screening, Hek293
A549 cells = assay: RLuc pDNA delivery, robotic library screening, A549
Experimental: (§3) Cells were seeded in a 96 well plate the day before the experiment at a concentration of 60,000 cell/mL (100 μL/w) in DMEM+10% FBS+1% Gln-Abt. For robotic library screening, the delivery of pDNA encoding for the expression of Renilla luciferase gene (RLuc, pRL-CMV (Promega, #E2261)) in six different cell lines was performed. Amphihilic molecule stock solutions in DMSO were diluted with DMEM and freshly mixed with pDNA stock solutions in DMEM prior to transfection experiments, to afford several complexes at different amphiphile concentration (2-10 μM) while maintaining a constant final pDNA concentration of 2 ng/μL. The mixture was shaken for 30 min at room temperature before the addition to the cells. The cell medium was aspirated, and cells were washed twice with PBS. Finally, 50 μL of the complex's solution were added to the cells and incubated for 4 h. After the incubation, the medium was replaced by 100 μL of fresh DMEM supplemented with 10% FBS. 72 hours after transfection the DMEM was removed, cells were washed once with HBSS and 90 μL of HBSS were added to each well. Cells were incubated at 37° C. for 30 minutes. Then basal luminescence levels were read in a plate reader. Immediately, 10 μL of coelenterazine h in HBSS were added to each well (5 μM final concentration) and cells were incubated at 37° C. for 10 minutes. Finally, the total luminescence measurement of the plates was performed. Amphiphile transfection efficiency was compared and normalized to Lipofectamine® 2000 efficiency (value of 1 in Tables 1-5 and 7; bold numbers). All experiments were done in triplicate.
as §1, §2

ARPE19 cells = assay: RLuc pDNA delivery, robotic library screening, ARPE19
HepG2 cells = assay: RLuc pDNA delivery, robotic library screening, HepG2
Experimental: as §3, §1, §2

## Ac-RK*RRK*K*R-NH2 (Ac-RK(NHNH2)RRK(NHNH2)K(NHNH2)R-NH2; not fully specified; printed as Ac-RK*RRK*K*R-NH2; also: K*2,K*5,K*6: native or modified lysine (ε-amide to a linker)) [7.3(L-R)]
HCT116 cells; Myristoleyl, 5 μM
  mean luminescent intensity (RLuc pDNA): 7939 RLU
HCT116 cells; Myristoleyl, 10 μM
  mean luminescent intensity (RLuc pDNA): −83 RLU
HCT116 cells; Myristoleyl, 15 μM
  mean luminescent intensity (RLuc pDNA): −41 RLU
HCT116 cells; Palmitoleyl, 5 μM
  mean luminescent intensity (RLuc pDNA): 22225 RLU
HCT116 cells; Palmitoleyl, 10 μM
  mean luminescent intensity (RLuc pDNA): 41280 RLU
HCT116 cells; Petroselinyl, 5 μM
  mean luminescent intensity (RLuc pDNA): 2832 RLU
HCT116 cells; Petroselinyl, 10 μM
  mean luminescent intensity (RLuc pDNA): 9686 RLU
Hela cells; Myristoleyl, 5 μM
  mean luminescent intensity (RLuc pDNA): 3647 RLU
Hela cells; Myristoleyl, 10 μM
  mean luminescent intensity (RLuc pDNA): 2076 RLU
Hela cells; Myristoleyl, 15 μM
  mean luminescent intensity (RLuc pDNA): 22 RLU
Hela cells; Palmitoleyl, 5 μM
  mean luminescent intensity (RLuc pDNA): 62538 RLU
Hela cells; Palmitoleyl, 10 μM
  mean luminescent intensity (RLuc pDNA): 25113 RLU
Hela cells; Palmitoleyl, 15 μM
  mean luminescent intensity (RLuc pDNA): 3405 RLU
Hela cells; Petroselinyl, 5 μM
  mean luminescent intensity (RLuc pDNA): 4972 RLU
Hek293 cells; Myristoleyl, 5 μM
  mean luminescent intensity (RLuc pDNA): 46216 RLU
Hek293 cells; Myristoleyl, 10 μM
  mean luminescent intensity (RLuc pDNA): 51837 RLU
Hek293 cells; Myristoleyl, 15 μM
  mean luminescent intensity (RLuc pDNA): 10351 RLU
Hek293 cells; Palmitoleyl, 5 μM
  mean luminescent intensity (RLuc pDNA): 73751 RLU
Hek293 cells; Palmitoleyl, 10 μM
  mean luminescent intensity (RLuc pDNA): 115755 RLU
Hek293 cells; Palmitoleyl, 15 μM
  mean luminescent intensity (RLuc pDNA): 29282 RLU
Hek293 cells; Petroselinyl, 5 μM
  mean luminescent intensity (RLuc pDNA): 9983 RLU
Hek293 cells; Petroselinyl, 10 μM
  mean luminescent intensity (RLuc pDNA): 59396 RLU
Hek293 cells; Petroselinyl, 15 μM
  mean luminescent intensity (RLuc pDNA): 8037 RLU
A549 cells; Oleyl, 5 μM
  mean luminescent intensity (RLuc pDNA): 13651 RLU
A549 cells; Palmitoleyl, 5 μM
  mean luminescent intensity (RLuc pDNA): 5366 RLU
A549 cells; Palmitoleyl, 15 μM
  mean luminescent intensity (RLuc pDNA): 12440 RLU
A549 cells; Petroselinyl, 15 μM
  mean luminescent intensity (RLuc pDNA): 7194 RLU
ARPE19 cells; Myristoleyl, 5 μM
  mean luminescent intensity (RLuc pDNA): 522 RLU
ARPE19 cells; Myristoleyl, 10 μM
  mean luminescent intensity (RLuc pDNA): 20 RLU
ARPE19 cells; Myristoleyl, 15 μM
  mean luminescent intensity (RLuc pDNA): 56 RLU
ARPE19 cells; Palmitoleyl, 5 μM
  mean luminescent intensity (RLuc pDNA): 2987 RLU
ARPE19 cells; Petroselinyl, 5 μM
  mean luminescent intensity (RLuc pDNA): 2177 RLU
HepG2 cells; Oleyl, 5 μM
  mean luminescent intensity (RLuc pDNA): 1696 RLU
HepG2 cells; Oleyl, 10 μM
  mean luminescent intensity (RLuc pDNA): 22303 RLU
HepG2 cells; Oleyl, 15 μM
  mean luminescent intensity (RLuc pDNA): 6498 RLU

## Ac-RRLK*RK*LRRLK*RL-NH2 (Ac-RRLK(NHNH2)RK(NHNH2)LRRLK(NHNH2)RL-NH2; not fully specified; printed as Ac-RRLK*RK*LRRLK*RL-NH2; also: K*4,K*6,K*11: native or modified lysine (ε-amide to a linker)) [13(2 + 1)]
HCT116 cells; Dodecanal, 5 μM
  mean luminescent intensity (RLuc pDNA): 132238 RLU
HCT116 cells; Dodecanal, 10 μM
  mean luminescent intensity (RLuc pDNA): 6721 RLU
HCT116 cells; Dodecanal, 15 μM
  mean luminescent intensity (RLuc pDNA): 2207 RLU
HCT116 cells; Myristoleyl, 5 μM
  mean luminescent intensity (RLuc pDNA): 70015 RLU
HCT116 cells; Myristoleyl, 15 μM
  mean luminescent intensity (RLuc pDNA): 1114 RLU
HCT116 cells; Palmitoleyl, 5 μM
  mean luminescent intensity (RLuc pDNA): 105588 RLU
HCT116 cells; Petroselinyl, 5 μM
  mean luminescent intensity (RLuc pDNA): 70216 RLU
Hela cells; Myristoleyl, 5 μM
  mean luminescent intensity (RLuc pDNA): 564 RLU
Hela cells; Myristoleyl, 10 μM
  mean luminescent intensity (RLuc pDNA): 379 RLU
Hela cells; Myristoleyl, 15 μM
  mean luminescent intensity (RLuc pDNA): 452 RLU
Hela cells; Palmitoleyl, 5 μM
  mean luminescent intensity (RLuc pDNA): 1206 RLU
Hek293 cells; Dodecanal, 5 μM
  mean luminescent intensity (RLuc pDNA): 269506 RLU
Hek293 cells; Palmitoleyl, 10 μM
  mean luminescent intensity (RLuc pDNA): 59470 RLU
Hek293 cells; Petroselinyl, 5 μM
  mean luminescent intensity (RLuc pDNA): 78739 RLU
Hek293 cells; Petroselinyl, 10 μM
  mean luminescent intensity (RLuc pDNA): 31561 RLU
A549 cells; Dodecanal, 5 μM
  mean luminescent intensity (RLuc pDNA): 24508 RLU
A549 cells; Dodecanal, 10 μM
  mean luminescent intensity (RLuc pDNA): 1332 RLU
A549 cells; Myristoleyl, 5 μM
  mean luminescent intensity (RLuc pDNA): 11594 RLU
A549 cells; Myristoleyl, 10 μM
  mean luminescent intensity (RLuc pDNA): 2240 RLU
A549 cells; Oleyl, 5 μM
  mean luminescent intensity (RLuc pDNA): 3288 RLU
A549 cells; Palmitoleyl, 5 μM
  mean luminescent intensity (RLuc pDNA): 22640 RLU
A549 cells; Palmitoleyl, 10 μM
  mean luminescent intensity (RLuc pDNA): 4550 RLU
A549 cells; Petroselinyl, 5 μM
  mean luminescent intensity (RLuc pDNA): 19295 RLU
A549 cells; Petroselinyl, 15 μM
  mean luminescent intensity (RLuc pDNA): 2435 RLU
ARPE19 cells; Dodecanal, 5 μM
  mean luminescent intensity (RLuc pDNA): 10116 RLU
ARPE19 cells; Myristoleyl, 5 μM
  mean luminescent intensity (RLuc pDNA): 2549 RLU
ARPE19 cells; Myristoleyl, 10 μM
  mean luminescent intensity (RLuc pDNA): −28 RLU
ARPE19 cells; Myristoleyl, 15 μM
  mean luminescent intensity (RLuc pDNA): −36 RLU
ARPE19 cells; Palmitoleyl, 5 μM
  mean luminescent intensity (RLuc pDNA): 5094 RLU
ARPE19 cells; Petroselinyl, 5 μM
  mean luminescent intensity (RLuc pDNA): 4118 RLU
HepG2 cells; Dodecanal, 5 μM
  mean luminescent intensity (RLuc pDNA): 322366 RLU
HepG2 cells; Dodecanal, 10 μM
  mean luminescent intensity (RLuc pDNA): 17040 RLU
HepG2 cells; Dodecanal, 15 μM
  mean luminescent intensity (RLuc pDNA): 2698 RLU
HepG2 cells; Myristoleyl, 5 μM
  mean luminescent intensity (RLuc pDNA): 418253 RLU
HepG2 cells; Myristoleyl, 10 μM
  mean luminescent intensity (RLuc pDNA): 85339 RLU
HepG2 cells; Myristoleyl, 15 μM
  mean luminescent intensity (RLuc pDNA): 23239 RLU
HepG2 cells; Oleyl, 5 μM
  mean luminescent intensity (RLuc pDNA): 116466 RLU
HepG2 cells; Palmitoleyl, 5 μM
  mean luminescent intensity (RLuc pDNA): 353987 RLU
HepG2 cells; Palmitoleyl, 10 μM
  mean luminescent intensity (RLuc pDNA): 97075 RLU
HepG2 cells; Petroselinyl, 5 μM
  mean luminescent intensity (RLuc pDNA): 168828 RLU
